Source: patent publication US20230157952A1, “METHOD FOR IMPROVING THE STABILITY OF A PHARMACEUTICAL COMPOSITION COMPRISING A HIGH PENETRATION DRUG, AND THE PHARMACEUTICAL COMPOSITION OBTAINED THEREFROM” (Techfields Inc., priority 2020, published 2023)

Experiment: Effect of temperature (and pH) on the stability of the solution (purity)
Assay type: physicochemical

## CCN(CC)CCOC(=O)C(C)c1ccc(CC(C)C)cc1.Cl (racemic)
pH 1.02, 7% solution in water
  Purity (%) at day 21 (60° C.): 0%
  Purity(%) at day 21 (5° C.): 93.7 ± 0.3%
  Purity(%) at day 21 (25° C.): 73.0 ± 0.4%
  Purity(%) at day 21 (40° C.): 18.6 ± 0.4%
pH 2.09, 7% solution in water
  Purity (%) at day 21 (60° C.): 0%
  Purity(%) at day 21 (5° C.): 97.6 ± 0.4%
  Purity(%) at day 21 (25° C.): 86.1 ± 0.3%
  Purity(%) at day 21 (40° C.): 30.4 ± 0.3%
pH 3.00, 7% solution in water
  Purity (%) at day 21 (60° C.): 8.8 ± 0.3%
  Purity(%) at day 21 (25° C.): 96.5 ± 0.4%
  Purity(%) at day 21 (40° C.): 56.3 ± 0.4%
pH 3.68, 7% solution in water
  Purity (%) at day 21 (60° C.): 16.4 ± 0.4%
  Purity(%) at day 21 (40° C.): 64.3 ± 0.4%
pH 4.07, 7% solution in water
  Purity (%) at day 21 (60° C.): 22.6 ± 0.4%
  Purity(%) at day 21 (40° C.): 72.7 ± 0.3%
pH 4.35, 7% solution in water
  Purity (%) at day 21 (60° C.): 18.8 ± 0.2%
  Purity(%) at day 21 (40° C.): 72.6 ± 0.3%
pH 4.67, 7% solution in water
  Purity (%) at day 21 (60° C.): 10.3 ± 0.3%
  Purity(%) at day 21 (40° C.): 58.2 ± 0.4%
pH 4.95, 7% solution in water
  Purity (%) at day 21 (60° C.): 3.9 ± 0.3%
  Purity(%) at day 21 (5° C.): 97.5 ± 0.4%
  Purity(%) at day 21 (25° C.): 95.4 ± 0.4%
  Purity(%) at day 21 (40° C.): 50.2 ± 0.4%
pH 5.98, 7% solution in water
  Purity (%) at day 21 (60° C.): 0%
  Purity(%) at day 21 (5° C.): 96.1 ± 0.3%
  Purity(%) at day 21 (25° C.): 90.7 ± 0.3%
  Purity(%) at day 21 (40° C.): 29.9 ± 0.2%
pH 6.98, 7% solution in water
  Purity (%) at day 21 (60° C.): 0%
  Purity(%) at day 21 (5° C.): 90.7 ± 0.4%
  Purity(%) at day 21 (25° C.): 78.6 ± 0.4%
  Purity(%) at day 21 (40° C.): 19.7 ± 0.4%
pH 8.01, 7% solution in water
  Purity (%) at day 21 (60° C.): 0%
  Purity(%) at day 21 (5° C.): 81.6 ± 0.5%
  Purity(%) at day 21 (25° C.): 52.5 ± 0.5%
  Purity(%) at day 21 (40° C.): 0%

## CCN(CC)CCOC(=O)c1cc(-c2ccc(F)cc2F)ccc1OC(C)=O.Cl
7% solution in water, pH 1.0, day 0
  Purity(%) at day 0: 99.1%
7% solution in water, pH 1.0, day 14, 5° C.
  Purity(%) at day 14 (5° C.): 90.2%
7% solution in water, pH 1.0, day 14, 25° C.
  Purity(%) at day 14 (25° C.): 61.2%
7% solution in water, pH 1.0, day 14, 40° C.
  Purity(%) at day 14 (40° C.): 0%
7% solution in water, pH 1.0, day 14, 60° C.
  Purity (%) at day 14 (60° C.): 0%
7% solution in water, pH 2.0, day 0
  Purity(%) at day 0: 99.1%
7% solution in water, pH 2.0, day 14, 5° C.
  Purity(%) at day 14 (5° C.): 95.8%
7% solution in water, pH 2.0, day 14, 25° C.
  Purity(%) at day 14 (25° C.): 82.7%
7% solution in water, pH 2.0, day 14, 40° C.
  Purity(%) at day 14 (40° C.): 0%
7% solution in water, pH 2.0, day 14, 60° C.
  Purity (%) at day 14 (60° C.): 0%
7% solution in water, pH 3.0, day 0
  Purity(%) at day 0: 99.1%
7% solution in water, pH 3.0, day 14, 5° C.
  Purity(%) at day 14 (5° C.): 97.5%
7% solution in water, pH 3.0, day 14, 25° C.
  Purity(%) at day 14 (25° C.): 87.7%
7% solution in water, pH 3.0, day 14, 40° C.
  Purity(%) at day 14 (40° C.): 2.3%
7% solution in water, pH 3.0, day 14, 60° C.
  Purity (%) at day 14 (60° C.): 0%
7% solution in water, pH 3.7, day 0
  Purity(%) at day 0: 99.1%
7% solution in water, pH 3.7, day 14, 5° C.
  Purity(%) at day 14 (5° C.): 98.2%
7% solution in water, pH 3.7, day 14, 25° C.
  Purity(%) at day 14 (25° C.): 95.5%
7% solution in water, pH 3.7, day 14, 40° C.
  Purity(%) at day 14 (40° C.): 14.1%
7% solution in water, pH 3.7, day 14, 60° C.
  Purity (%) at day 14 (60° C.): 0%
7% solution in water, pH 4.0, day 0
  Purity(%) at day 0: 99.1%
7% solution in water, pH 4.0, day 14, 5° C.
  Purity(%) at day 14 (5° C.): 98.4%
7% solution in water, pH 4.0, day 14, 25° C.
  Purity(%) at day 14 (25° C.): 95.9%
7% solution in water, pH 4.0, day 14, 40° C.
  Purity(%) at day 14 (40° C.): 14.3%
7% solution in water, pH 4.0, day 14, 60° C.
  Purity (%) at day 14 (60° C.): 0%
7% solution in water, pH 4.3, day 0
  Purity(%) at day 0: 99.1%
7% solution in water, pH 4.3, day 14, 5° C.
  Purity(%) at day 14 (5° C.): 98.4%
7% solution in water, pH 4.3, day 14, 25° C.
  Purity(%) at day 14 (25° C.): 95.8%
7% solution in water, pH 4.3, day 14, 40° C.
  Purity(%) at day 14 (40° C.): 12.8%
7% solution in water, pH 4.3, day 14, 60° C.
  Purity (%) at day 14 (60° C.): 0%
7% solution in water, pH 4.6, day 0
  Purity(%) at day 0: 99.1%
7% solution in water, pH 4.6, day 14, 5° C.
  Purity(%) at day 14 (5° C.): 98.3%
7% solution in water, pH 4.6, day 14, 25° C.
  Purity(%) at day 14 (25° C.): 95.6%
7% solution in water, pH 4.6, day 14, 40° C.
  Purity(%) at day 14 (40° C.): 3.4%
7% solution in water, pH 4.6, day 14, 60° C.
  Purity (%) at day 14 (60° C.): 0%
7% solution in water, pH 5.0, day 0
  Purity(%) at day 0: 99.1%
7% solution in water, pH 5.0, day 14, 5° C.
  Purity(%) at day 14 (5° C.): 97.0%
7% solution in water, pH 5.0, day 14, 25° C.
  Purity(%) at day 14 (25° C.): 91.0%
7% solution in water, pH 5.0, day 14, 40° C.
  Purity(%) at day 14 (40° C.): 0.9%
7% solution in water, pH 5.0, day 14, 60° C.
  Purity (%) at day 14 (60° C.): 0%
7% solution in water, pH 6.0, day 0
  Purity(%) at day 0: 99.1%
7% solution in water, pH 6.0, day 14, 5° C.
  Purity(%) at day 14 (5° C.): 91.6%
7% solution in water, pH 6.0, day 14, 25° C.
  Purity(%) at day 14 (25° C.): 84.1%
7% solution in water, pH 6.0, day 14, 40° C.
  Purity(%) at day 14 (40° C.): 0%
7% solution in water, pH 6.0, day 14, 60° C.
  Purity (%) at day 14 (60° C.): 0%
7% solution in water, pH 7.0, day 0
  Purity(%) at day 0: 99.1%
7% solution in water, pH 7.0, day 14, 5° C.
  Purity(%) at day 14 (5° C.): 87.3%
7% solution in water, pH 7.0, day 14, 25° C.
  Purity(%) at day 14 (25° C.): 60.3%
7% solution in water, pH 7.0, day 14, 40° C.
  Purity(%) at day 14 (40° C.): 0%
7% solution in water, pH 7.0, day 14, 60° C.
  Purity (%) at day 14 (60° C.): 0%
7% solution in water, pH 8.0, day 0
  Purity(%) at day 0: 99.1%
7% solution in water, pH 8.0, day 14, 5° C.
  Purity(%) at day 14 (5° C.): 57.3%
7% solution in water, pH 8.0, day 14, 25° C.
  Purity(%) at day 14 (25° C.): 21.2%
7% solution in water, pH 8.0, day 14, 40° C.
  Purity(%) at day 14 (40° C.): 0%
7% solution in water, pH 8.0, day 14, 60° C.
  Purity (%) at day 14 (60° C.): 0%

## CCN(CC)CCOC(=O)Cc1ccccc1Oc1ccc(Cl)cc1Cl.Cl
pH 1.0, 7% solution in water
  Purity (%) at day 21 (60° C.): 0%
  Purity(%) at day 0: 97.9 ± 0.3%
  Purity(%) at day 21 (5° C.): 91.3 ± 0.3%
  Purity(%) at day 21 (25° C.): 67.3 ± 0.3%
  Purity(%) at day 21 (40° C.): 15.1 ± 0.3%
pH 2.0, 7% solution in water
  Purity (%) at day 21 (60° C.): 0%
  Purity(%) at day 0: 98.0 ± 0.2%
  Purity(%) at day 21 (5° C.): 95.1 ± 0.3%
  Purity(%) at day 21 (25° C.): 82.1 ± 0.3%
  Purity(%) at day 21 (40° C.): 27.0 ± 0.3%
pH 3.0, 7% solution in water
  Purity (%) at day 21 (60° C.): 0%
  Purity(%) at day 0: 98.3 ± 0.2%
  Purity(%) at day 21 (5° C.): 97.0 ± 0.2%
  Purity(%) at day 21 (25° C.): 93.5 ± 0.2%
  Purity(%) at day 21 (40° C.): 48.3 ± 0.3%
pH 3.7, 7% solution in water
  Purity (%) at day 21 (60° C.): 13.3 ± 0.5%
  Purity(%) at day 0: 98.4 ± 0.1%
  Purity(%) at day 21 (5° C.): 97.6 ± 0.2%
  Purity(%) at day 21 (25° C.): 96.9 ± 0.3%
  Purity(%) at day 21 (40° C.): 57.2 ± 0.2%
pH 4.0, 7% solution in water
  Purity (%) at day 21 (60° C.): 18.2 ± 0.3%
  Purity(%) at day 0: 98.5 ± 0.1%
  Purity(%) at day 21 (5° C.): 98.0 ± 0.1%
  Purity(%) at day 21 (25° C.): 97.0 ± 0.2%
  Purity(%) at day 21 (40° C.): 68.1 ± 0.3%
pH 4.3, 7% solution in water
  Purity (%) at day 21 (60° C.): 17.2 ± 0.2%
  Purity(%) at day 0: 98.5 ± 0.2%
  Purity(%) at day 21 (5° C.): 98.0 ± 0.1%
  Purity(%) at day 21 (25° C.): 97.0 ± 0.3%
  Purity(%) at day 21 (40° C.): 68.1 ± 0.3%
pH 4.6, 7% solution in water
  Purity (%) at day 21 (60° C.): 14.3 ± 0.3%
  Purity(%) at day 0: 98.6 ± 0.1%
  Purity(%) at day 21 (5° C.): 98.1 ± 0.2%
  Purity(%) at day 21 (25° C.): 96.1 ± 0.2%
  Purity(%) at day 21 (40° C.): 54.5 ± 0.2%
pH 5.0, 7% solution in water
  Purity (%) at day 21 (60° C.): 1.2 ± 0.2%
  Purity(%) at day 0: 98.4 ± 0.2%
  Purity(%) at day 21 (5° C.): 96.9 ± 0.2%
  Purity(%) at day 21 (25° C.): 93.1 ± 0.3%
  Purity(%) at day 21 (40° C.): 40.8 ± 0.3%
pH 6.0, 7% solution in water
  Purity (%) at day 21 (60° C.): 0%
  Purity(%) at day 0: 98.2 ± 0.2%
  Purity(%) at day 21 (5° C.): 95.0 ± 0.2%
  Purity(%) at day 21 (25° C.): 86.7 ± 0.2%
  Purity(%) at day 21 (40° C.): 27.8 ± 0.2%
pH 7.0, 7% solution in water
  Purity (%) at day 21 (60° C.): 0%
  Purity(%) at day 0: 98.0 ± 0.3%
  Purity(%) at day 21 (5° C.): 90.0 ± 0.3%
  Purity(%) at day 21 (25° C.): 59.3 ± 0.3%
  Purity(%) at day 21 (40° C.): 11.0 ± 0.4%
pH 8.0, 7% solution in water
  Purity (%) at day 21 (60° C.): 0%
  Purity(%) at day 0: 97.8 ± 0.3%
  Purity(%) at day 21 (5° C.): 78.3 ± 0.3%
  Purity(%) at day 21 (25° C.): 47.1 ± 0.3%
  Purity(%) at day 21 (40° C.): 0%
